Reference: ChEMBL document CHEMBL1201861, “Genomics of Drug Sensitity in Cancer screening data, Wellcome Trust Sanger Institute”

How the values were obtained:
Type in all cases: functional, cell-based
D-336MG = assay: cells; details: Homo sapiens
Description: SANGER: Inhibition of human D-336MG cell growth in a cell viability assay.

IM-9 = assay: SANGER: Inhibition of human IM-9 cell growth in a cell viability assay.
IMR-5 = assay: cells; details: Homo sapiens;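 note: growth inhibition of human IMR-5 cells, read out with a cell viability assay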
Description: SANGER: Inhibition of human IMR-5 cell growth in a cell viability assay.

KARPAS-422 = assay: cells; details: Homo sapiens
Description: SANGER: Inhibition of human KARPAS-422 cell growth in a cell viability assay.

LP-1 = assay: cells; details: Homo sapiens;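 note: growth inhibition of human LP-1 cells, with the read-out taken from a cell viability assay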
Description: SANGER: Inhibition of human LP-1 cell growth in a cell viability assay.

LU-165 = assay: cells; details: Homo sapiens
Description: SANGER: Inhibition of human LU-165 cell growth in a cell viability assay.

MONO-MAC-6 = assay: cells; details: Homo sapiens;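 note: cell viability assay measuring growth inhibition of human MONO-MAC-6 cells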
Description: SANGER: Inhibition of human MONO-MAC-6 cell growth in a cell viability assay.

NB17 = assay: cells; details: Homo sapiens;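 note: growth inhibition of NB17 cells, read out with a cell viability assay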
Description: SANGER: Inhibition of human NB17 cell growth in a cell viability assay.

NCI-H1963 = assay: cells; details: Homo sapiens;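 note: cell growth inhibition of the human line, determined with a cell viability assay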
Description: SANGER: Inhibition of human NCI-H1963 cell growth in a cell viability assay.

NCI-H719 = assay: cells; details: Homo sapiens;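 note: growth inhibition of the cultured cell line, read out with a viability assay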
Description: SANGER: Inhibition of human NCI-H719 cell growth in a cell viability assay.

SU-DHL-1 = assay: SANGER: Inhibition of human SU-DHL-1 cell growth in a cell viability assay.
SUP-T1 = assay: cells; details: Homo sapiens;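 note: growth inhibition of human SUP-T1 cells, read out as cell viability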
Description: SANGER: Inhibition of human SUP-T1 cell growth in a cell viability assay.

BOKU = assay: cells; details: Homo sapiens;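 note: growth inhibition of the human BOKU cell line, read out by a cell viability assay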
Description: SANGER: Inhibition of human BOKU cell growth in a cell viability assay.

SMILES | IC50 (D-336MG) | IC50 (IM-9) | IC50 (IMR-5) | IC50 (KARPAS-422) | IC50 (LP-1) | IC50 (LU-165) | IC50 (MONO-MAC-6) | IC50 (NB17) | IC50 (NCI-H1963) | IC50 (NCI-H719) | IC50 (SU-DHL-1) | IC50 (SUP-T1) | IC50 (BOKU)
CCNc1cc(N[C@H]2CC[C@@H](O)CC2)nc(Nc2ccc3c(ccn3Cc3ccccc3)c2)n1 | > 5120 nM | > 5120 nM | > 5120 nM | > 5120 nM | > 5120 nM | > 5120 nM | > 5120 nM | > 5120 nM | > 5120 nM | > 5120 nM | > 5120 nM | > 5120 nM | > 5120 nM
COc1cc(C)c(Sc2cnc(NC(=O)c3ccc(CNC(C)C(C)(C)C)cc3)s2)cc1C(=O)N1CCN(C(C)=O)CC1 (configuration not stated) | 6780 nM | > 10200 nM | > 10200 nM | > 10200 nM | > 10200 nM | > 10200 nM | 6670 nM | 8920 nM | > 10200 nM | > 10200 nM | > 10200 nM | 7480 nM | > 10200 nM
Cc1n[nH]c2ccc(-c3cncc(OC[C@@H](N)Cc4c[nH]c5ccccc45)c3)cc12 [A-443654] | 421 nM | > 1020 nM | 600 nM | 294 nM | > 1020 nM | 620 nM | 77.2 nM | 112 nM | 392 nM | > 1020 nM | 797 nM | > 1020 nM | > 1020 nM
Cc1nc(Nc2ncc(C(=O)Nc3c(C)cccc3Cl)s2)cc(N2CCN(CCO)CC2)n1 [DASATINIB] | 6.3 nM | > 1280 nM | > 1280 nM | 340 nM | > 1280 nM | > 1280 nM | > 1280 nM | > 1280 nM | > 1280 nM | > 1280 nM | > 1280 nM | > 1280 nM | 491 nM
